Source: patent US5369103A, “Piperazine derivatives” (John Wyeth & Brother, Limited, priority 1990, dated 1994)

How the values were obtained:
5HT1A receptor [1] = molecular target: T1, 5HT1A receptor (Rattus norvegicus, UniProt P19327); experiment: 5HT1A receptor binding activity in rat hippocampal membrane homogenate; details: read-out: 1C50
T1 construct: rat hippocampal membrane homogenate; from tissue; host or cells: rat hippocampus, membrane homogenate
T1 sequence (P19327 1-422): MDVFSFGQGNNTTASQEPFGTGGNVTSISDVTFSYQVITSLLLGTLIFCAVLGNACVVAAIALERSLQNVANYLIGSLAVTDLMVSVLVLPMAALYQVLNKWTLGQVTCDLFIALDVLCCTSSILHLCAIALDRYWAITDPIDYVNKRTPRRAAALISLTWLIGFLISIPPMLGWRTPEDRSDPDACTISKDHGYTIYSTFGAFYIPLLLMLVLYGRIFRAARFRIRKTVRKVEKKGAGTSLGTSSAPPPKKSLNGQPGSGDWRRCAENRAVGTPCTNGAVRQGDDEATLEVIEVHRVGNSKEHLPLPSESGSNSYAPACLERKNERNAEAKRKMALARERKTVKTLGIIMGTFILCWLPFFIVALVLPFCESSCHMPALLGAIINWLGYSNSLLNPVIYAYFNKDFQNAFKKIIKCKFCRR
Procedure: The compounds of the invention were tested for 5HT1A receptor binding activity in rat hippocampal membrane homogenate by the method of B. S. Alexander and M. D. Wood, J Pharm Pharmacol, 1988, 40,888-891. The results for representative compounds of the invention are given below

α1 sites = experiment: affinity for α1 sites; type: binding; details: read-out: 1C50
5HT1A receptor [2] = molecular target: T2, 5HT1A receptor (Cavia porcellus, UniProt A0A286Y074); experiment: 5HT1A receptor antagonism: antagonism of 5-carboxamidotryptamine in the guinea-pig ileum in vitro; type: cell-based; details: read-out: pA2 (converted)
T2 construct: guinea-pig ileum in vitro; from tissue; host or cells: guinea-pig ileum
T2 sequence (A0A286Y074 1-421): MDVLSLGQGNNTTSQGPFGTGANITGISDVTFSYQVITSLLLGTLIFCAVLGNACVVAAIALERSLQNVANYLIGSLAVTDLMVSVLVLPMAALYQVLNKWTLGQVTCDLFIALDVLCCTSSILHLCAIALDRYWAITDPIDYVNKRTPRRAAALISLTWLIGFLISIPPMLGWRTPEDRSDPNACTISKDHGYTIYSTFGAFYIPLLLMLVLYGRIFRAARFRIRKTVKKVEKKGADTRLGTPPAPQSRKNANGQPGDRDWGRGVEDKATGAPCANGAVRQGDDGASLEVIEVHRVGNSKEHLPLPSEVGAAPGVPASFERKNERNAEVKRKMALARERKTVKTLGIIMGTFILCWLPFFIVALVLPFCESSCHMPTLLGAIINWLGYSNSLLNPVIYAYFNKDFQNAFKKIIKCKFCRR
Procedure: The compounds are tested for 5HT1A receptor antagonism activity in a test involving the antagonism of 5-carboxamidotryptamine in the guinea-pig ileum in vitro (based upon the procedure of Fozard et al, Br J Pharmac, 1985, 86, 601P).

Row | IC50 (5HT1A receptor [1]) | IC50 (α1 sites) | Kb (5HT1A receptor [2]) | Structure (SMILES)
1 | 9 nM | 2160 nM | – | COc1ccccc1N1CCN(C/C(=C/C(=O)N2CCCCCC2)c2ccccc2)CC1 [Example 3 (E-isomer), 2,3,4,5,6,7-Hexahydro-1-[4-(4-(2-methoxyphenyl)piperazin-1-yl)-3-phenylbut-2-enoyl]-1H-azepine]
2 | 1.38 nM | 682 nM | 0.794 nM | COc1ccccc1N1CCN(CC(CC(=O)N2CCCCCC2)c2ccccc2)CC1 (centres unmarked) [Example 6, 2,3,4,5,6,7-Hexahydro-1-[4-(4-(2-methoxyphenyl)piperazin-1-yl)-3-phenylbutanoyl]-1H-azepine]
